Reference: patent US4443619A, “Chlorocitric acids” (Hoffmann-La Roche Inc., priority 1981, dated 1984)
Structures can show the parent of a compound that is named as a salt.

Tests used:
[1] = Effect of stereoisomers of chlorocitric acid on food consumption in meal-fed rats (Example 14); format: in vivo, Charles River female rats; details: mean ± S.E.
Protocol: Animals were fasted 48 hr, then meal-fed the 70% glucose diet described by A. C. […] Following 5 to 12 days alimentation on the meal-feeding regimen, rats were dosed with the appropriate compounds orally by intubation 1/2 hr before the 3 hr meal. Food cups were weighed immediately after the meal. The control group consisted of 5 to 10 rats, while the experimental group consisted of 4 to 6 rats.

[2] = Food consumption of three diets in meal-fed rats (Example 15); format: in vivo, Charles River female rats; details: mean ± S.E.
Protocol: Charles River female rats (Charles River Breeding Laboratories, Wilmington, Mass.), weighing 170 to 200 g, were individually housed in wire-bottomed cages in a temperature-regulated (22° C.) light-controlled room (12 hr light, 6 a.m. to 6 p.m. and 12 hr dark, 6 p.m. to 6 a.m.). Animals were fasted 48 hr, then meal-fed the indicated diets from 8 to 11 a.m. Following 5 to 12 days alimentation on the meal-feeding regimen, rats were dosed with the appropriate compounds orally by intubation 1/2 hr before the 3 hr meal. Food cups were weighed immediately after the 1st, 2nd and 3rd hr of the meal. The control groups consisted of 8 to 10 rats and the experimental group considered of 5 to 6 rats.

[3] = Anorectic activities of stereoisomers: 3-day food consumption and body weight gain in meal-fed rats; format: in vivo, Charles River female rats; details: 1.32 mmoles/kg oral, 3 days, mean ± S.E.
Protocol: Charles River female rats (Charles River Breeding Laboratories, Wilmington, Mass.), weighing 196 to 210 g, were individually housed in wire-bottomed cages in a temperature-regulated (22° C.) light-controlled room (12 hr light, 6 a.m. to 6 p.m. and 12 hr dark, 6 p.m. to 6 a.m.). Animals were fasted 48 hr, then meal-fed a 70% glucose diet from 8 to 11 a.m. Following 5 to 12 days alimentation on the meal-feeding regimen, rats were dosed with the appropriate compounds orally by intubation 1/2 hr before the 3 hr meal for 3 days. The total food consumption and body weight gained during the 3 day period were determined. The control group consisted of 16 rats, while the experimental group consists of 8 rats.

[4] = Anorectic effect in 8 hour meal-fed Zucker rats (Example 17); format: in vivo, lean (Fa/-) and obese (fa/fa)
Protocol: Lean (Fa/-) Zucker rats and obese (fa/fa) Zucker rats of both sexes were individually housed in wire-bottomed cages in a temperature-regulated (22° C.) light-controlled room (12 hr light, 6 a.m. to 6 p.m. and 12 hr dark, 6 p.m. 6 a.m.). The animals were fed a high carbohydrate (70% glucose) diet ad libitum for 13 days, dosed with the indicated compounds by oral intubation for 9 days and allowed to recover for 3 days. The animals were then meal fed from 8 a.m. to 4 p.m. for a period of 5 days, following which they were continued on the same meal schedule for an additional 6 days. During the 6-day period, the animals were administered the indicated compounds by oral intubation at 8 a.m. and 12 p.m. Food cups were weighed immediately after the meal.

[5] = Body weight gain in 8 hour meal-fed Zucker rats (Example 18); format: in vivo, lean (Fa/-) and obese (fa/fa); details: 0.66 mmoles/kg b.i.d. oral, 6 days, mean ± S.E.
Protocol: Lean (Fa/-) Zucker rats and obese (fa/fa) Zucker rats of both sexes were individually housed in wire-bottomed cages in a temperature-regulated (22° C.) light-controlled room (12 hr light, 6 a.m. to 6 p.m. and 12 hr dark, 6 p.m. to 6 a.m.). The animals were fed a high carbohydrate (70% glucose) diet ad libitum for 13 days, dosed with the indicated compounds by oral intubation for 9 days and allowed to recover for 3 days. The animals were then meal fed from 8 a.m. to 4 p.m. for a period of 5 days, following which they were continued on the same meal schedule for an additional 6 days. During the 6-day period, the animals were administered the indicated compounds by oral intubation at 8 a.m. and 12 p.m. Body weight gain during the 6-day period was determined.

[6] = tested on: Stomach Emptying; experiment: Effect on stomach emptying ([14C]glucose load) in rats (Example 25); format: in vivo; details: 0.33 mmoles/kg oral, 60 min after [14C]glucose load, mean ± S.E.
Protocol: Rats were trained to consume a 3 hr 70% glucose meal from 8 a.m. to 11 a.m. daily. On the experimental day, compounds were administered orally by intubation 30 min before a [^14 C]glucose load was given also by intubation. […] Sixty minutes later the rats were killed by decapitation; blood and stomachs were collected on ice.
Data are expressed as follows: dpm×10^3 per ml of serum and dpm×10^3 per stomach.

[7] = Food intake in dogs, pyramiding oral doses (Examples 26 and 27); format: in vivo, beagle dogs
Protocol: Twelve beagle dogs of both sexes weighing 7.6-12.2 kg were used for this test. The test compounds were contained in gelatin capsules for oral administration to two dogs of each sex. The animals were weighed and food consumption calculated daily excluding weekends throughout the test period. Each animal received 800 grams of diet daily consisting of 400 grams of Wayne pellet dog food mixed with 400 ml distilled water. The animals received pyramiding oral doses of the test compound over the three week period. On Monday and Tuesday of the first week the animals were weighed and food consumption was recorded (control). The animals received 3 mg/kg on Wednesday and 10 mg/kg on Friday of the first week. Doses of 30, 100 and 300 mg/kg were administered on Monday, Wednesday and Friday respectively during the second week. A final dose of 1000 mg/kg was administered on Monday of the third week.
Food intake was determined by the procedure by pyramiding doses described in Example 26.

[8] = 0.66 mmoles/kg oral, control 8.2 ± 1.2
[9] = 2.63 mmoles/kg oral, control 13.5 ± 0.8
[10] = 20% Corn Oil, 0.33 mmoles (75 mg)/kg oral
[11] = 20% Corn Oil, 0.66 mmoles (150 mg)/kg oral
[12] = 70% Glucose, 0.33 mmoles (75 mg)/kg oral
[13] = 70% Glucose, 0.66 mmoles (150 mg)/kg oral
[14] = Chow, 0.33 mmoles (75 mg)/kg oral
[15] = Chow, 0.66 mmoles (150 mg)/kg oral
[16] = test day 20, no dose, (±) one animal, (+) and (-) two animals

## O=C(O)C[C@](O)(C(=O)O)[C@H](Cl)C(=O)O [(+)-threo-Chlorocitric acid, (+)-threo-chlorocitric acid]
[1]; [8]
  Food consumption: 6.8 ± 1.0 g
[1]; [9]
  Food consumption: 5.1 ± 1.2 g
[2]; [10]
  Food intake, 1st hr: 7.1 ± 1.2 g
  Food intake, 2nd hr: 3.9 ± 0.5 g
  Food intake, 3rd hr: 3.2 ± 0.6 g
  Food intake, Total: 14.2 ± 1.2 g
[2]; [11]
  Food intake, 1st hr: 6.7 ± 1.6 g
  Food intake, 2nd hr: 3.1 ± 0.6 g
  Food intake, 3rd hr: 2.2 ± 0.7 g
  Food intake, Total: 12.3 ± 1.6 g
[2]; [12]
  Food intake, 1st hr: 6.2 ± 1.8 g
  Food intake, 2nd hr: 2.4 ± 0.8 g
  Food intake, 3rd hr: 2.4 ± 0.5 g
  Food intake, Total: 11.0 ± 2.3 g
[2]; [13]
  Food intake, 1st hr: 3.2 ± 0.5 g
  Food intake, 2nd hr: 5.1 ± 1.3 g
  Food intake, 3rd hr: 1.7 ± 0.3 g
  Food intake, Total: 10.1 ± 1.7 g
[2]; [14]
  Food intake, 1st hr: 7.4 ± 0.6 g
  Food intake, 2nd hr: 2.6 ± 0.7 g
  Food intake, 3rd hr: 2.2 ± 0.5 g
  Food intake, Total: 12.2 ± 0.4 g
[2]; [15]
  Food intake, 1st hr: 7.7 ± 0.5 g
  Food intake, 2nd hr: 3.9 ± 0.5 g
  Food intake, 3rd hr: 1.8 ± 0.9 g
  Food intake, Total: 13.4 ± 0.9 g
[3]
  3-Day Body Weight Gain: -3.5 ± 1.2 g
  3-Day Food Consumption: 26.5 ± 1.3 g
[4]; Fa/- lean, 0.66 mmoles/kg oral, treatment day 1
  Daily Food Consumption: 10.1 ± 0.8 g
[4]; Fa/- lean, 0.66 mmoles/kg oral, treatment day 2
  Daily Food Consumption: 8.7 ± 0.3 g
[4]; Fa/- lean, 0.66 mmoles/kg oral, treatment day 3
  Daily Food Consumption: 11.7 ± 0.7 g
[4]; Fa/- lean, 0.66 mmoles/kg oral, treatment day 4
  Daily Food Consumption: 9.8 ± 0.9 g
[4]; Fa/- lean, 0.66 mmoles/kg oral, treatment day 5
  Daily Food Consumption: 12.8 ± 0.9 g
[4]; Fa/- lean, 0.66 mmoles/kg oral, treatment day 6
  Daily Food Consumption: 11.4 ± 0.7 g
[4]; Fa/- lean, 0.66 mmoles/kg, day 0 (pretreatment)
  Daily Food Consumption: 10.6 ± 0.8 g
[4]; fa/fa obese, 0.66 mmoles/kg oral, treatment day 1
  Daily Food Consumption: 10.3 ± 0.4 g
[4]; fa/fa obese, 0.66 mmoles/kg oral, treatment day 2
  Daily Food Consumption: 8.8 ± 0.8 g
[4]; fa/fa obese, 0.66 mmoles/kg oral, treatment day 3
  Daily Food Consumption: 11.3 ± 1.0 g
[4]; fa/fa obese, 0.66 mmoles/kg oral, treatment day 4
  Daily Food Consumption: 11.6 ± 1.2 g
[4]; fa/fa obese, 0.66 mmoles/kg oral, treatment day 5
  Daily Food Consumption: 12.3 ± 1.5 g
[4]; fa/fa obese, 0.66 mmoles/kg oral, treatment day 6
  Daily Food Consumption: 14.2 ± 1.8 g
[4]; fa/fa obese, 0.66 mmoles/kg, day 0 (pretreatment)
  Daily Food Consumption: 14.3 ± 1.4 g
[5]; Fa/- lean
  Body Weight Gain: 2.5 ± 2.3 g
[5]; fa/fa obese
  Body Weight Gain: -3.6 ± 2.0 g
[6]
  Serum, total per ml: 3.4 ± 0.6 dpm × 10^3
  Stomach Contents, total per stomach: 1946 ± 361 dpm × 10^3
[7]; [16]
  Food Consumption, % of control: 96 % of control
  Food consumption: 583 ± 17 g
[7]; test days -2, -1, before dosing (control period)
  Food consumption: 610 ± 43 g

## O=C(O)C[C@](O)(C(=O)O)[C@@H](Cl)C(=O)O [(-)-erythro-Chlorocitric acid, (-)-erythro-chlorocitric acid]
[1]; [8]
  Food consumption: 7.0 ± 1.9 g
[1]; [9]
  Food consumption: 7.2 ± 1.5 g
[3]
  3-Day Body Weight Gain: -4.8 ± 3.2 g
  3-Day Food Consumption: 24.5 ± 1.8 g
[6]
  Serum, total per ml: 5.1 ± 0.4 dpm × 10^3
  Stomach Contents, total per stomach: 1491 ± 232 dpm × 10^3

## O=C(O)C[C@@](O)(C(=O)O)[C@H](Cl)C(=O)O [(+)-erythro-Chlorocitric acid, (+)-erythro-chlorocitric acid]
[1]; [8]
  Food consumption: 8.1 ± 1.6 g
[1]; [9]
  Food consumption: 10.5 ± 0.8 g
[3]
  3-Day Body Weight Gain: -1.5 ± 2.3 g
  3-Day Food Consumption: 31.8 ± 2.3 g
[6]
  Serum, total per ml: 5.0 ± 0.4 dpm × 10^3
  Stomach Contents, total per stomach: 1832 ± 160 dpm × 10^3

## O=C(O)CC(O)(CC(=O)O)C(=O)O [Trisodium Citrate, reference compound]
[6]
  Serum, total per ml: 6.4 ± 0.1 dpm × 10^3
  Stomach Contents, total per stomach: 1180 ± 208 dpm × 10^3
